Data taken from ChEMBL document CHEMBL4028802, “DILIrank: the largest reference drug list ranked by the risk for developing drug-induced liver injury in humans” (Drug Discov Today, 2016).

Assays:
[1] = organism: Homo sapiens; test: Liver toxicity in human assessed as induction of drug-induced liver injury by measuring severity class index
[2] = organism: Homo sapiens; test: Liver toxicity in human assessed as induction of drug-induced liver injury by measuring verified drug-induced liver injury concern status
Throughout, for DILI severity class: key of the grades not given here.

NCCS [CYSTEAMINE]
DILI_severity_class [1]: 3
DILI_Concern [2]: Ambiguous-Dili-Concern

C=C1CC[C@H](O)C/C1=C/C=C1\CCC[C@]2(C)[C@@H]([C@H](C)/C=C/[C@H](C)C(C)C)CC[C@@H]12 [ERGOCALCIFEROL]
DILI_severity_class [1]: 0
DILI_Concern [2]: No-Dili-Concern

C#CCN[C@@H]1CCc2ccccc21 [RASAGILINE]
DILI_severity_class [1]: 3
DILI_Concern [2]: Ambiguous-Dili-Concern

CCCC[C@](C)(O)C/C=C/[C@H]1[C@H](O)CC(=O)[C@@H]1CCCCCCC(=O)OC
DILI_severity_class [1]: 3
DILI_Concern [2]: Ambiguous-Dili-Concern

Oc1ccc(C2CNCCc3c2cc(O)c(O)c3Cl)cc1 (stereo unspecified) [FENOLDOPAM]
DILI_severity_class [1]: 0
DILI_Concern [2]: No-Dili-Concern

C[C@H]1O[C@H](O[C@H]2[C@H](O)[C@@H](O)[C@@H](O[C@H]3[C@H](O)[C@@H](O)C(O)O[C@@H]3CO)O[C@@H]2CO)[C@H](O)[C@@H](O)[C@@H]1N[C@H]1C=C(CO)[C@@H](O)[C@H](O)[C@H]1O (stereo partly specified) [ACARBOSE]
DILI_severity_class [1]: 8
DILI_Concern [2]: Most-Dili-Concern

CN1CCN(C(c2ccccc2)c2ccc(Cl)cc2)CC1 (stereo unspecified) [CHLORCYCLIZINE]
DILI_severity_class [1]: 0
DILI_Concern [2]: Less-Dili-Concern

COC(=O)C1=C(C)NC(C)=C(C(=O)OC)C1c1ccccc1[N+](=O)[O-] [NIFEDIPINE]
DILI_severity_class [1]: 3
DILI_Concern [2]: Less-Dili-Concern

C[C@@H](O)[C@H]1C(=O)N2C(C(=O)O)=C(S[C@@H]3CN[C@H](CNS(N)(=O)=O)C3)[C@H](C)[C@H]12 [DORIPENEM]
DILI_severity_class [1]: 3
DILI_Concern [2]: Ambiguous-Dili-Concern

CCc1nn(CCCN2CCN(c3cccc(Cl)c3)CC2)c(=O)n1CCOc1ccccc1 [NEFAZODONE]
DILI_severity_class [1]: 8
DILI_Concern [2]: Most-Dili-Concern

C=CCC1(C(C)C#CCC)C(=O)N=C(O)N(C)C1=O (stereo unspecified) [METHOHEXITAL]
DILI_severity_class [1]: 3
DILI_Concern [2]: Ambiguous-Dili-Concern

CC(C)(C(=O)O)c1ccc(C(O)CCCN2CCC(C(O)(c3ccccc3)c3ccccc3)CC2)cc1 (stereo unspecified) [FEXOFENADINE]
DILI_severity_class [1]: 0
DILI_Concern [2]: No-Dili-Concern

CCCCCCCN(CC)CCCC(O)c1ccc(NS(C)(=O)=O)cc1 (stereo unspecified) [IBUTILIDE]
DILI_severity_class [1]: 0
DILI_Concern [2]: No-Dili-Concern

CC1(C)C(/C=C/C=C/C=C/C=C2/N(CCCCS(=O)(=O)[O-])c3ccc4ccccc4c3C2(C)C)=[N+](CCCCS(=O)(=O)[O-])c2ccc3ccccc3c21.[Na+] [INDOCYANINE GREEN]
DILI_severity_class [1]: 0
DILI_Concern [2]: No-Dili-Concern

Cc1ccc(-c2nc3ccc(C)cn3c2CC(=O)N(C)C)cc1 [ZOLPIDEM]
DILI_severity_class [1]: 7
DILI_Concern [2]: Ambiguous-Dili-Concern

CN1CC[C@]23c4c5ccc(O)c4O[C@H]2C(=O)CC[C@H]3[C@H]1C5 [HYDROMORPHONE]
DILI_severity_class [1]: 3
DILI_Concern [2]: Ambiguous-Dili-Concern

C[C@H]1c2cccc(O)c2C(=O)C2=C(O)[C@]3(O)C(=O)C(C(N)=O)=C(O)[C@@H](N(C)C)[C@@H]3[C@@H](O)[C@@H]21.O [DOXYCYCLINE]
DILI_severity_class [1]: 3
DILI_Concern [2]: Less-Dili-Concern

CC(C)(C)NC(=O)[C@H]1CC[C@H]2[C@@H]3CC[C@H]4NC(=O)C=C[C@]4(C)[C@H]3CC[C@]12C [FINASTERIDE]
DILI_severity_class [1]: 0
DILI_Concern [2]: Less-Dili-Concern

CN(C)C(=O)C(CCN1CCC(O)(c2ccc(Cl)cc2)CC1)(c1ccccc1)c1ccccc1 [LOPERAMIDE]
DILI_severity_class [1]: 0
DILI_Concern [2]: No-Dili-Concern

CC[C@@H](C(N)=O)N1CCCC1=O
DILI_severity_class [1]: 8
DILI_Concern [2]: Less-Dili-Concern

CCC1=C[C@@H]2CN(C1)Cc1c([nH]c3ccccc13)[C@@](C(=O)OC)(c1cc3c(cc1OC)N(C)[C@H]1[C@@](O)(C(=O)OC)[C@H](OC(C)=O)[C@]4(CC)C=CCN5CC[C@]31[C@@H]54)C2 [VINORELBINE]
DILI_severity_class [1]: 3
DILI_Concern [2]: Ambiguous-Dili-Concern

O=C1NC(c2ccccc2)(c2ccccc2)C(=O)N1COP(=O)(O)O [FOSPHENYTOIN]
DILI_severity_class [1]: 8
DILI_Concern [2]: Most-Dili-Concern

Clc1ccccc1C(c1ccccc1)(c1ccccc1)n1ccnc1 [CLOTRIMAZOLE]
DILI_severity_class [1]: 3
DILI_Concern [2]: Less-Dili-Concern

CCN(CC)C(=O)/C(C#N)=C/c1cc(O)c(O)c([N+](=O)[O-])c1 [ENTACAPONE]
DILI_severity_class [1]: 0
DILI_Concern [2]: Less-Dili-Concern

Cc1ccccc1C(=O)Nc1ccc(C(=O)N2CCCC(O)c3cc(Cl)ccc32)c(C)c1 (stereo unspecified) [TOLVAPTAN]
DILI_severity_class [1]: 8
DILI_Concern [2]: Most-Dili-Concern

Nc1ccc(C(=O)O)c(O)c1 [AMINOSALICYLIC ACID]
DILI_severity_class [1]: 5
DILI_Concern [2]: Most-Dili-Concern

CN1CC[C@]23CCCC[C@H]2[C@H]1Cc1ccc(O)cc13 [LEVORPHANOL]
DILI_severity_class [1]: 0
DILI_Concern [2]: No-Dili-Concern

NC(=O)NO [HYDROXYUREA]
DILI_severity_class [1]: 8
DILI_Concern [2]: Most-Dili-Concern

CC(=O)N1CCN(c2ccc(OCC3COC(Cn4ccnc4)(c4ccc(Cl)cc4Cl)O3)cc2)CC1 (stereo unspecified) [KETOCONAZOLE]
DILI_severity_class [1]: 8
DILI_Concern [2]: Most-Dili-Concern

Clc1ccc2c(c1)C(c1ccccc1)=NCc1nncn1-2 [ESTAZOLAM]
DILI_severity_class [1]: 0
DILI_Concern [2]: No-Dili-Concern

CC(C[N+](C)(C)C)OC(N)=O (stereo unspecified) [BETHANECHOL]
DILI_severity_class [1]: 0
DILI_Concern [2]: No-Dili-Concern

CN[C@@H](C)[C@@H](O)c1ccccc1 [PSEUDOEPHEDRINE]
DILI_severity_class [1]: 0
DILI_Concern [2]: No-Dili-Concern

Clc1ccc(C(c2ccccc2Cl)C(Cl)Cl)cc1 (stereo unspecified) [MITOTANE]
DILI_severity_class [1]: 0
DILI_Concern [2]: No-Dili-Concern

N#Cc1ccc(C(c2ccc(C#N)cc2)n2cncn2)cc1 [LETROZOLE]
DILI_severity_class [1]: 2
DILI_Concern [2]: Less-Dili-Concern

OCCOCCN1CCN(C2=Nc3ccccc3Sc3ccccc32)CC1 [QUETIAPINE]
DILI_severity_class [1]: 3
DILI_Concern [2]: Less-Dili-Concern

NC(CO)(CO)CO [TROMETHAMINE]
DILI_severity_class [1]: 6
DILI_Concern [2]: Ambiguous-Dili-Concern

CC(C)OC(=O)C(C)(C)Oc1ccc(C(=O)c2ccc(Cl)cc2)cc1 [FENOFIBRATE]
DILI_severity_class [1]: 3
DILI_Concern [2]: Less-Dili-Concern

CC[C@H](C)[C@H](NC(=O)[C@H](CC(=O)O)NC(=O)[C@H](CC(C)C)NC(=O)[C@H](CC(C)C)NC(=O)[C@H](CCCCN)NC(=O)[C@H](CCCN=C(N)N)NC(=O)[C@H](CC(N)=O)NC(=O)[C@H](CO)NC(=O)[C@H](Cc1cnc[nH]1)NC(=O)[C@H](C)NC(=O)[C@H](CCC(N)=O)NC(=O)[C@H](CCC(N)=O)NC(=O)[C@H](C)NC(=O)[C@H](CC(C)C)NC(=O)[C@H](CCC(N)=O)NC(=O)[C@H](CC(=O)O)NC(=O)[C@H](C)NC(=O)[C@H](CCCCN)NC(=O)[C@@H](NC(=O)[C@H](CCSC)NC(=O)[C@H](CCC(=O)O)NC(=O)[C@H](CC(C)C)NC(=O)[C@@H](NC(=O)[C@H](CCC(=O)O)NC(=O)[C@H](CCCN=C(N)N)NC(=O)[C@H](CC(C)C)NC(=O)[C@H](CC(C)C)NC(=O)[C@H](Cc1cnc[nH]1)NC(=O)[C@H](Cc1ccccc1)NC(=O)[C@@H](NC(=O)[C@H](CC(C)C)NC(=O)[C@H](CC(=O)O)NC(=O)[C@H](CC(C)C)NC(=O)[C@H](CO)NC(=O)[C@@H](NC(=O)[C@@H]1CCCN1C(=O)[C@@H]1CCCN1C(=O)[C@H](CCC(=O)O)NC(=O)[C@H](CCC(N)=O)NC(=O)[C@@H](N)CO)[C@@H](C)CC)[C@@H](C)O)C(C)C)[C@@H](C)O)C(=O)N[C@@H](C)C(N)=O
DILI_severity_class [1]: 0
DILI_Concern [2]: No-Dili-Concern

O=C(O)c1cc(-c2ccc(F)cc2F)ccc1O [DIFLUNISAL]
DILI_severity_class [1]: 8
DILI_Concern [2]: Most-Dili-Concern

FC(F)(F)C(F)(F)C(F)(F)F
DILI_severity_class [1]: 0
DILI_Concern [2]: No-Dili-Concern

CCN(CCO)CCCC(C)Nc1ccnc2cc(Cl)ccc12 (stereo unspecified) [HYDROXYCHLOROQUINE]
DILI_severity_class [1]: 7
DILI_Concern [2]: Less-Dili-Concern

C[C@@](Cc1ccc(O)c(O)c1)(NN)C(=O)O [CARBIDOPA ANHYDROUS]
DILI_severity_class [1]: 3
DILI_Concern [2]: Ambiguous-Dili-Concern

C1CCC(C(CC2CCCCN2)C2CCCCC2)CC1 (stereo unspecified) [PERHEXILINE]
DILI_severity_class [1]: 8
DILI_Concern [2]: Most-Dili-Concern

C=C[C@H]1C[N@@]2CC[C@H]1C[C@H]2[C@H](O)c1ccnc2ccc(OC)cc12 [QUININE]
DILI_severity_class [1]: 3
DILI_Concern [2]: Less-Dili-Concern

CC[C@]1(O)C[C@H]2CN(CCc3c([nH]c4ccccc34)[C@@](C(=O)OC)(c3cc4c(cc3OC)N(C=O)[C@H]3[C@@](O)(C(=O)OC)[C@H](OC(C)=O)[C@]5(CC)C=CCN6CC[C@]43[C@@H]65)C2)C1 [VINCRISTINE]
DILI_severity_class [1]: 8
DILI_Concern [2]: Less-Dili-Concern

NC(=O)N1c2ccccc2CC(=O)c2ccccc21 [OXCARBAZEPINE]
DILI_severity_class [1]: 3
DILI_Concern [2]: Less-Dili-Concern

COC1=CC(=O)C[C@@H](C)[C@]12Oc1c(Cl)c(OC)cc(OC)c1C2=O [GRISEOFULVIN]
DILI_severity_class [1]: 8
DILI_Concern [2]: Most-Dili-Concern

CC(C)[C@H](N)C(=O)OCCOCn1cnc2c(=O)[nH]c(N)nc21 [VALACYCLOVIR]
DILI_severity_class [1]: 3
DILI_Concern [2]: Less-Dili-Concern

Cc1ccc(NC(=O)c2ccc(CN3CCN(C)CC3)cc2)cc1Nc1nccc(-c2cccnc2)n1 [IMATINIB]
DILI_severity_class [1]: 8
DILI_Concern [2]: Most-Dili-Concern

CC(C(=O)O)c1ccc(-c2ccccc2)c(F)c1 (stereo unspecified) [FLURBIPROFEN]
DILI_severity_class [1]: 3
DILI_Concern [2]: Ambiguous-Dili-Concern

CCCN(CCC)CCc1cccc2c1CC(=O)N2 [ROPINIROLE]
DILI_severity_class [1]: 4
DILI_Concern [2]: Less-Dili-Concern

C[C@]12COC(=O)C[C@@H]1CC[C@@H]1[C@@H]2CC[C@@]2(C)[C@H]1CC[C@]2(C)O [OXANDROLONE]
DILI_severity_class [1]: 8
DILI_Concern [2]: Most-Dili-Concern

Clc1ccc2c(c1)C(N1CCNCC1)=Nc1ccccc1O2 [AMOXAPINE]
DILI_severity_class [1]: 3
DILI_Concern [2]: Ambiguous-Dili-Concern
